Assay results reported in patent publication US10098904B2, “Zidovudine combination therapies for treating microbial infections” (HELPERBY THERAPEUTICS LIMITED, priority 2014, dated 2018).

Legend:
NDM-1 BAA2469 E. coli = assay type: in vivo; details: mice, intravenous; rifampicin 10 mg/kg, colistin 20 mg/kg, HT0120663 5 mg/kg; singly
[1] = test system: NDM-1 BAA2470 K. pneumoniae; assay type: in vivo; details: mice, intravenous; rifampicin 10 mg/kg, colistin 20 mg/kg, HT0120663 5 mg/kg; singly
enterobacteria = details: on some enterobacteria; cited from earlier work

Row | Compound | in vivo activity of drug alone (NDM-1 BAA2469 E. coli) | in vivo activity of drug alone [1] | antibacterial effect (enterobacteria)
1 | Cc1cn([C@H]2C[C@H](N=[N+]=[N-])[C@@H](CO)O2)c(=O)[nH]c1=O [HT0120663, Zidovudine] | no in vivo activity | no in vivo activity | bactericidal effect
2 | Colistin | no in vivo activity | no in vivo activity | 
